This is an account of results in patent US11452724B2, “Methods for treating amyotrophic lateral sclerosis” (The Regents of the University of Michigan, priority 2018, dated 2022).

SMILES strings stand for the structures. Where two headings read alike, the source gives them in different places.

For assay [1], the system named is NK cells, CD4 T cells. Conditions: cited from earlier work.
The test system of assay [2] is peripheral NK cells. Conditions: mice; Shimaoka et al. 2017; cited from earlier work.
The test system of assay [3] is NK92 NK cells. Nature of the assay: NK cell migration transwell assay. Type of assay: cell-based. Conditions: IL-15 stimulated NK92 cells, 3 hours. As to the method:
(§1) FIG. 3A-E: Tofacitinib reduces NK cell activity and cytotoxicity. (A) NK cells (NK92 cell line) were treated with tofacitinib either after 30 ng/ml of IL-15 activation overnight (ON) or before IL-15 activation (2-hours) to test its efficacy in inhibiting already activated NK cells (overnight stimulation) or preventing their activation (2-hour stimulation). (B) NK cells cultured Overnight or 2 Hrs with IL-15 were lysed and cytokine expression assessed using qPCR. IL-10, TNF-α, and IFN-γ gene expression was assessed. (C) Intracellular granzyme B and perforin were levels were assessed in NK cells in vitro using flow cytometry. […] (D) NK cell migration was assessed using a transwell assay. […] A chemoattractant (serum or CCL13) was placed on the other side of the transwell and after 3 hours the fluorescent intensity in the chemoattractant half of the well was assessed. (E) NK cytotoxicity was measured using a K562 co-culture assay. […] Cells were then stained with a viability dye and analyzed using flow cytometry. […]
(§2) Experiments were conducted to assess the impact on NK cell migration following tofacitinib treatment (FIG. 3D). […] NK cell chemoattractants (serum or CCL13) were then placed in the other half of the well and the number of NK cells which traversed the membrane were measured. […] Cells were collected, stained with a viability dye, and analyzed using flow cytometry. […]

Assay [4] deals with NK92 NK cell line. Nature of the assay: Intracellular granzyme B and perforin levels in NK cells by flow cytometry. Type of assay: cell-based. The protocol:
FIG. 3A-E: Tofacitinib reduces NK cell activity and cytotoxicity. (A) NK cells (NK92 cell line) were treated with tofacitinib either after 30 ng/ml of IL-15 activation overnight (ON) or before IL-15 activation (2-hours) to test its efficacy in inhibiting already activated NK cells (overnight stimulation) or preventing their activation (2-hour stimulation). (B) NK cells cultured Overnight or 2 Hrs with IL-15 were lysed and cytokine expression assessed using qPCR. IL-10, TNF-α, and IFN-γ gene expression was assessed. (C) Intracellular granzyme B and perforin were levels were assessed in NK cells in vitro using flow cytometry. Fluorescent intensity was plotted for unstimulated NK cells in serum free conditions (negative control; blue), serum-stimulated NK cells (positive control; red), IL-15 stimulated NK cells (30 ng/ml IL-15; orange), or tofacitinib treated NK cells (30 ng/ml IL-15+ tofacitinib; green). (D) NK cell migration was assessed using a transwell assay. NK92 cells were fluorescently labeled and placed on one side of a well separated by a porous membrane. A chemoattractant (serum or CCL13) was placed on the other side of the transwell and after 3 hours the fluorescent intensity in the chemoattractant half of the well was assessed. (E) NK cytotoxicity was measured using a K562 co-culture assay. […] Cells were then stained with a viability dye and analyzed using flow cytometry. […]
For orientation: Flow cytometry measures light scatter and fluorescence of single cells or particles in a stream.

Assay [5] relates to NK92 NK cells co-cultured with K562 cancer cells. As to the kind of experiment: NK cytotoxicity K562 co-culture assay. Type of assay: cell-based. The conditions noted are these: 4:1 NK:K562 ratio overnight; even following overnight IL-15 stimulation. As to the method:
as §1, §2

For assay [6], the system named is NK92 NK cell line. Nature of the assay: Cytokine gene expression by qPCR in IL-15 stimulated NK92 cells. Conditions: 30 ng/ml IL-15, tofacitinib treatment (Overnight IL-15) or pre-treatment (2 Hr IL-15). In kind it is cell-based. The protocol:
as §1
To test this possibility, experiments were conducted that utilized the well-characterized NK92 NK cell line to assess tofacitinib's impact on NK cell activation and cytotoxicity in vitro. […] First, NK cells from these two conditions were collected, lysed, and cytokine expression gene expression was assessed using qPCR (FIG. 3B).

The subject of assay [7] is peripheral NK cells. Conditions: human patients; van Vollenhoven et al. 2019, van Gurp et al. 2008; cited from earlier work.

For the compound `C[C@@H]1CCN(C(=O)CC#N)C[C@@H]1N(C)c1ncnc2[nH]ccc12` [tofacitinib], the NK cell levels entry in assay [1] (Hodge et al. 2016, van Gurp et al. 2008) is on record as “reduced in a dose dependent manner”. In addition, in assay [1] (van Gurp et al. 2008), the “CD4 T cell levels” value was “maintaining”. Also, the “peripheral NK cells” value in assay [2] was “capable of reducing”. The “NK cell migration in response to CCL13” value in assay [3] (CCL13 as chemoattractant) is recorded as “more robust suppression”. Also, the “NK cell migration in response to serum” value in assay [3] (serum as chemoattractant) is recorded as “modest reduction”. Besides, the intracellular perforin levels result in assay [4] (NK cells stimulated with IL-15, particularly when treated with tofacitinib prior to IL-15 stimulation) is “reduced”. The “intracellular granzyme B levels” value in assay [4] (NK cells stimulated with IL-15 overnight or for two hours, flow cytometry) is listed as “modest effect”. In addition, in assay [5], the “NK cell-mediated killing (K562 survival)” value is “ameliorated”. Further, in assay [6], the IFN-γ gene expression entry is reported as “significantly reduced” and the IL-10 gene expression entry was “significantly reduced”. Moreover, in assay [7], the “peripheral NK cells” value is given as “capable of reducing”.
